Data published in patent publication US4223024A, “4"-O-Alkylgentamicins and sagamicins” (Abbott Laboratories, priority 1979, dated 1980).
In brackets after ≈: the same amount, converted by molar mass.

Experiments:
[1] = tested on: Bacillis subtilis U. of I1. 10707; assay: two fold dilution test (MIC), Bacillis subtilis U. of I1. 10707; type: cell-based; details: Streptomycin Assay Agar with yeast extract, pH 7.9, overnight
Method: (§1) The in vitro antibiotic activity is determined by a two fold dilution test using Streptomycin Assay Agar with yeast extract (at pH 7.9). The inoculum of approximately 1×10^5 of the indicated test organism is delivered by a multiple inoculator. The test is incubated over night.
(§2) The minimum inhibitory concentrations for the compounds of Example 4, Example 8, compound 1 and Example 12 compound, are set forth in Table II. The minimum inhibitory concentrations (MIC) are expressed in micrograms per ml.

[2] = tested on: Staphylococcus aureus ATCC 6538P; assay: two fold dilution test (MIC), Staphylococcus aureus ATCC 6538P; type: cell-based; details: Streptomycin Assay Agar with yeast extract, pH 7.9, overnight
Method: as §1, §2

[3] = tested on: Shigella sonnei ATCC 9290; assay: two fold dilution test (MIC), Shigella sonnei ATCC 9290; type: cell-based; details: pH 7.9, overnight; for MIC (minimum inhibitory concentration): Streptomycin Assay Agar with yeast extract
Method: as §1, §2

[4] = tested on: Salmonella typhi ATCC 9992; assay: two fold dilution test (MIC), Salmonella typhi ATCC 9992; type: cell-based; details: for MIC (minimum inhibitory concentration): Salmonella typhi ATCC 9992, Streptomycin Assay Agar with yeast extract, pH 7.9, overnight
Method: as §1, §2

[5] = tested on: Escherichia coli R3; assay: two fold dilution test (MIC), Escherichia coli R3; type: cell-based; details: Streptomycin Assay Agar with yeast extract, pH 7.9, overnight
Method: as §1, §2

[6] = tested on: Pseudomonas aeruginosa BMH #1; assay: two fold dilution test (MIC), Pseudomonas aeruginosa BMH #1; type: cell-based; details: Streptomycin Assay Agar with yeast extract, pH 7.9, overnight
Method: as §1, §2

[7] = tested on: Klebsiella pneumonia ATCC 10031; assay: two fold dilution test (MIC), Klebsiella pneumonia ATCC 10031; type: cell-based; details: pH 7.9, overnight; for MIC (minimum inhibitory concentration): Streptomycin Assay Agar with yeast extract
Method: as §1, §2

[8] = tested on: Proteus vulgaris ATCC 6897; assay: two fold dilution test (MIC), Proteus vulgaris ATCC 6897; type: cell-based; details: pH 7.9, overnight; for MIC (minimum inhibitory concentration): Streptomycin Assay Agar with yeast extract
Method: as §1, §2

[9] = tested on: Streptococcus faecalis ATCC 10541; assay: two fold dilution test (MIC), Streptococcus faecalis ATCC 10541; type: cell-based; details: pH 7.9, overnight; for MIC (minimum inhibitory concentration): Streptomycin Assay Agar with yeast extract
Method: as §1, §2

[10] = tested on: Escherichia coli ATCC 26; assay: two fold dilution test (MIC), Escherichia coli ATCC 26; type: cell-based; details: pH 7.9, overnight; for MIC (minimum inhibitory concentration): Streptomycin Assay Agar with yeast extract
Method: as §1, §2

[11] = compared with gentamicin; background statement; cited from earlier work
[12] = tested on: aerobic gram-negative bacteria; details: background statement; cited from earlier work
[13] = read-out: MIC (minimum inhibitory concentration)

Compound	MIC (minimum inhibitory concentration) [1]	MIC (minimum inhibitory concentration) [2]	MIC (minimum inhibitory concentration) [3]	MIC (minimum inhibitory concentration) [4]	MIC (minimum inhibitory concentration) [5]	MIC (minimum inhibitory concentration) [6]	MIC (minimum inhibitory concentration) [7]	MIC (minimum inhibitory concentration) [8]	MIC (minimum inhibitory concentration) [9]	MIC (minimum inhibitory concentration) [10]	also measured
CNC1C(O)C(OC2C(N)CC(N)C(OC3OC(CN)CCC3N)C2O)OCC1(C)OC (centres unmarked) [Ex 4, 4"-O-Methylgentamicin C1a]	0.005 µg/mL (≈ 0.0108 µM)	0.005 µg/mL (≈ 0.0108 µM)	0.04 µg/mL (≈ 0.0863 µM)	0.01 µg/mL (≈ 0.0216 µM)	10.000 µg/mL (≈ 21.6 µM)	0.63 µg/mL (≈ 1.36 µM)	0.005 µg/mL (≈ 0.0108 µM)	0.08 µg/mL (≈ 0.173 µM)	10.000 µg/mL (≈ 21.6 µM)	0.005 µg/mL (≈ 0.0108 µM)	–
CNCC1CCC(N)C(OC2C(N)CC(N)C(OC3OCC(C)(OC)C(NC)C3O)C2O)O1 (centres unmarked) [Ex 8(1), 4"-O-Methylsagamicin]	–	–	–	–	–	–	–	–	–	–	MIC [1, 13]: 0.005 µg/mL (≈ 0.0105 µM); MIC ([2]; ATCC6538P, read-out: MIC (minimum inhibitory concentration)): 0.05 µg/mL (≈ 0.105 µM); MIC ([3]; ATCC9290, Streptomycin Assay Agar with yeast extract, read-out: MIC (minimum inhibitory concentration)): 0.05 µg/mL (≈ 0.105 µM); MIC ([4]; Salmonella enterica, pH 7.9, read-out: MIC (minimum inhibitory concentration)): 0.05 µg/mL (≈ 0.105 µM); MIC [5, 13]: 3.1 µg/mL (≈ 6.49 µM); MIC [6, 13]: 0.4 µg/mL (≈ 0.838 µM); MIC ([7]; Klebsiella pneumoniae, ATCC10031, Streptomycin Assay Agar with yeast extract, read-out: MIC (minimum inhibitory concentration)): 0.05 µg/mL (≈ 0.105 µM); MIC ([8]; ATCC6897, Streptomycin Assay Agar with yeast extract, read-out: MIC (minimum inhibitory concentration)): 0.05 µg/mL (≈ 0.105 µM); MIC ([9]; Enterococcus faecalis, ATCC10541, Streptomycin Assay Agar with yeast extract, read-out: MIC (minimum inhibitory concentration)): 12.5 µg/mL (≈ 26.2 µM); MIC ([10]; ATCC26, Streptomycin Assay Agar with yeast extract, read-out: MIC (minimum inhibitory concentration)): 0.05 µg/mL (≈ 0.105 µM)
CNC1C(O)C(OC2C(N)CC(N)C(OC3OC(CN)CCC3N)C2O)OCC1(C)OC (stereo not drawn) [Ex 12, 5-Epi-4"-O-methylgentamicin C1a]	0.005 µg/mL (≈ 0.0108 µM)	0.005 µg/mL (≈ 0.0108 µM)	0.08 µg/mL (≈ 0.173 µM)	0.01 µg/mL (≈ 0.0216 µM)	2.5 µg/mL (≈ 5.39 µM)	0.63 µg/mL (≈ 1.36 µM)	0.005 µg/mL (≈ 0.0108 µM)	0.08 µg/mL (≈ 0.173 µM)	25.00 µg/mL (≈ 53.9 µM)	0.02 µg/mL (≈ 0.0431 µM)	–
CNCC1CCC(N)C(OC2C(N)CC(N)C(OC3OCC(C)(O)C(NC)C3O)C2O)O1 (centres unmarked) [Sagamicin, sagamicin]	–	–	–	–	–	–	–	–	–	–	ototoxicity [11]: lower ototoxicity than does gentamicin
gentamicin	–	–	–	–	–	–	–	–	–	–	anti-bacterial spectrum / effectiveness [12]: effective against most aerobic gram-negative bacteria
